Data from patent US20240279191A1, “SMALL MOLECULE INHIBITORS OF TEAD-YAP” (The General Hospital Corporation, priority 2021, published 2024).

Tests used:
Metabolic stability MLM = settings: % parent remained per Table G2
[1] = system: YAP/TAZ-TEAD direct target genes; assay: RNA-seq analysis in H226 cells; format: cell-based, Human; settings: 1 μM TM2, versus K975 in H226 xenograft tumors (GSE156912), FIG. 7
Procedure: The NCI-H226 cells were treated with TM2 at 1 μM for 24 hours. Total RNA was isolated with RNeasy Mini Kit (74104, Qiagen). The integrity of isolated RNA was analyzed using Bioanalyzer (Agilent Technologies). and the RNA-seq libraries were made by Novogene. All libraries have at least 50 million reads sequenced (150 bp paired-end). The heatmaps were generated using different expressed genes from TM2 treatment in NCI-H226 cells with Motpheus (https://software.broadinstitute.org/morpheus/). Principle component analysis (PCA) was determined by PCA function in M3C package in R. Gene Set Enrichment Analysis (GSEA) was performed using GSEA software from Broad Institute (http://software.broadinstitute.org/gsea/index.jsp). The YAP_TAZ-TEAD Direct Target Genes set were generated with the published YAP/TAZ-TEAD target genes (Zanconato et al., 2015).

HCT116 cells = assay: Cell proliferation assay (MTT), HCT116; settings: CRC cell line, FIG. 8D
DLD1 cells = assay: Cell proliferation assay (MTT), DLD1; settings: CRC cell line, FIG. 8D
[2] = system: Mouse hepatic progenitor organoids; assay: Organoids viability; format: cell-based; settings: 40 nM
Procedure: Mouse hepatic progenitor organoids (70932, […] Tech) were seeded in 96 well plate using 20 ul Matrigel (Corning, #354230) and cultured in HepatiCult™ Organoid Growth Medium (06031, […] Tech) with or without TM2. Medium was replaced after every 48 h with fresh compound. Organoid viability was measured by PrestoBlue™ HS Cell Viability Reagent (ThermoFisher, #P50200) following the manufacturer's protocol.

H226 = H226 growth inhibition (SAR tables); format: cell-based; settings: Homo sapiens, NCI-H226
Myc-TEAD1 = Myc-TEAD1 (Homo sapiens, UniProt P28347); assay: Inhibition of Myc-TEAD1 palmitoylation in HEK293A cells; format: cell-based; settings: 24 h, dose-dependent, FIG. 2C
Procedure: HEK293A cells were seeded in 6 cm dishes overnight and transfected with plasmids using PEI reagent (1 μg/μL). Briefly, PRK5-Myc-TEAD1 (33109, Addgene) and PEI were diluted in serum-free DMEM medium in two tubes (DNA: PEI ratio=1:2). After standing still for 5 mins, mix them well and stay for another 20 mins. The mixture was then added to dishes directly.
HEK293A cells with or without TEAD overexpression were pretreated with DMSO or TM2 in medium with 10% dialyzed fetal bovine serum (DFBS) for 8 h and labeled by Alkynyl Palmitic acid (1165, Click Chemistry Tools) for another 16 h. The cells were then washed and harvested by cold DPBS (14190250, Life Technologies). The cell pellets were isolated by centrifugation (500×g, 10 min) and lysed by TEA lysis buffer (50 mM TEA-HCl, pH 7.4, 150 mM NaCl, 1% Triton X-100, 0.2% SDS, 1×Protease inhibitor-EDTA free cocktail (05892791001, Roche), phosphatase inhibitor cocktail (P0044, Sigma-Aldrich)) on ice for 30 mins. The protein concentration was determined using Bio-Rad assay and adjusted to 1 mg/mL. 100 μL of protein sample mixture was treated with 10 μL of freshly prepared “click” mixture containing 1 mM TBTA, 10 mM TCEP, 10 mM CuSO4, 1 mM TBTA Biotin-Azide and incubated for 1 h at room temperature. […] The bound proteins were eluted with a buffer containing 10 mM EDTA pH 8.2 and 95% formamide and analyzed with SDS-PAGE. […]

[3] = system: Mouse hepatic progenitor organoids; assay: Immunofluorescence staining of Ki67 in organoids; format: cell-based; settings: 40 nM, 3D culture
Procedure: Organoids were plated in 8 well chamber slide and fixed in 4% paraformaldehyde at 4° C. for 1h. After permeabilization in 0.5% PBST, organoids were blocked with 2% BSA for 2 h and incubated with primary antibody overnight at […]. Imaging was performed on Nikon A1RHD25 confocal microscope.

logD 7.4 = settings: pH 7.4
NCI-H2052 cells = assay: Cell proliferation assay (MTT), NCI-H2052; settings: Homo sapiens, NCI-H2052, read-out: IC50 NCI-H2052 cell proliferation
PDL1 expression = PDL1 expression in cancer cell lines; format: cell-based
H226 cells = assay: Cell proliferation assay (MTT), H226; settings: Homo sapiens, NCI-H226, 144 h, read-out: IC50 H226 cell proliferation

Myc-TEAD1, sequence (P28347 whole entry): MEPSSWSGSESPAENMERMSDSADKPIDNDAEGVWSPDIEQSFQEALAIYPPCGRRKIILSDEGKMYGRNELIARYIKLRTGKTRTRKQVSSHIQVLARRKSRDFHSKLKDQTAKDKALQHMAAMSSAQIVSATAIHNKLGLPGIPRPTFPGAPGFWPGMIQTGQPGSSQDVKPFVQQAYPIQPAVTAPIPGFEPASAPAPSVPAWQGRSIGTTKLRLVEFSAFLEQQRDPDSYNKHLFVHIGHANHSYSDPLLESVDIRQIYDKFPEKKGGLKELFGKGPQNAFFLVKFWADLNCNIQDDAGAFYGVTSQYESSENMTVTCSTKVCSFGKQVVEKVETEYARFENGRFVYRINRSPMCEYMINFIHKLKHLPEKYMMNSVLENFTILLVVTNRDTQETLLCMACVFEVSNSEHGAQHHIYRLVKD

Met stab MLM, 15 min (Metabolic stability MLM; 15 min): 36% | Met stab MLM, 60 min (Metabolic stability MLM; 60 min): 4% | GI50 (H226): 73 nM | Myc-TEAD1 palmitoylation in cells (in words) (Myc-TEAD1): dramatically suppresses | logD (logD 7.4): 4.6 | IC50 (NCI-H2052 cells): 157 nM | IC50 (H226 cells): 26 nM
Compound: O=C(Nc1ccccc1)N1CCN(C(=O)c2cccc(OCCC3CCCCC3)c2)CC1 [TM2, 4-(3-(2-cyclohexylethoxy)benzoyl)-N-phenylpiperazine-1-carboxamide]
block of YAP/TAZ-TEAD direct target genes (in words) [1]: more efficient to block YAP/TAZ-TEAD target genes relative to K975 | inhibition of HCT116 cell proliferation (in words) (HCT116 cells): did not exhibit strong inhibition | inhibition of DLD1 cell proliferation (in words) (DLD1 cells): did not exhibit strong inhibition | disruption of organoids growth [2]: more than 85% | Ki67 positive cells in organoids (in words) [3]: significantly diminished | PDL1 expression in cancer cell lines (in words) (PDL1 expression): inhibits PDL1 expression
